# Experimental data reported in patent US12409171B2, “Pharmaceutically active pyrazolo-pyridone modulators of DCN1/2-mediated cullin neddylation” (UNIVERSITY OF KENTUCKY RESEARCH FOUNDATION, priority 2019, dated 2025).
# Molecular target: DCN1 (Homo sapiens (Human), UniProt Q96GG9)
# Assay: TR-FRET binding assay (biotin-DCN1 / Ac-UBE2M12-AlexaFluor488)
# Details: mean ± SD (n); read-out: DCN1_TRFRET Mean EC50
# Description: • IC50 values were generated using our TR-FRET binding assay and are represented as the mean of three replicates with errors reported as the standard deviation.
# The assay cocktail was then incubated for 1 h at room temperature and distributed using a WellMate instrument (Matrix). Compounds to be screened were added to assay plates from DMSO stock solutions by pin transfer using 50SS pins (V&P Scientific). […] All compounds were tested in triplicate or more.
# Chain of DCN1 (Q96GG9 whole entry): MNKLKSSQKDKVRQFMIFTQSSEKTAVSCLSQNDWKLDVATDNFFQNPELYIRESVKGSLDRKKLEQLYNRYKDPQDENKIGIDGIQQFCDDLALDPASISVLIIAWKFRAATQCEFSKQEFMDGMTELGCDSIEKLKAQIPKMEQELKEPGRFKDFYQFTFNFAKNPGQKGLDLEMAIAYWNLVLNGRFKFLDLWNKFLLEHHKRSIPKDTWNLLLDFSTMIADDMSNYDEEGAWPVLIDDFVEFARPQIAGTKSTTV
row,Compound,EC50 [nM]
1,"CCN1C(=O)[C@@H](NC(=O)c2cccc(C(F)(F)F)c2)[C@@H](c2cccs2)c2c(C)nn(-c3ccccc3)c21 [RG-0013988, N-[(4S,5S)-7-ethyl-3-methyl-6-oxo-1-phenyl-4-(thiophen-2-yl)-1H,4H,5H,6H,7H-pyrazolo[3,4-b]pyridin-5-yl]-3-(trifluoromethyl)benzamide]",1330 ± 50.7
2,"CCN1C(=O)[C@@H](NC(=O)C(C)(C)C)[C@@H](c2ccc(F)cc2)c2c(C)nn(-c3ccccc3)c21 [RG-0014063, N-[(4S,5S)-7-ethyl-4-(4-fluorophenyl)-3-methyl-6-oxo-1-phenyl-1H,4H,5H,6H,7H-pyrazolo[3,4-b]pyridin-5-yl]-2,2-dimethylpropanamide]",> 36500
3,"Cc1cccc(C(=O)N[C@@H]2C(=O)N(C(C)C)c3c(c(C)nn3-c3ccccc3)[C@@H]2c2ccc(F)cc2)c1 [RG-0008670, N-[(4S,5S)-4-(4-fluorophenyl)-3-methyl-6-oxo-1-phenyl-7-(propan-2-yl)-1H,4H,5H,6H,7H-pyrazolo[3,4-b]pyridin-5-yl]-3-methylbenzamide]",4140 ± 765
4,"CCN1C(=O)[C@@H](NS(=O)(=O)c2cccc(C(F)(F)F)c2)[C@@H](c2ccc(F)cc2)c2c(C)nn(-c3ccccc3)c21 [RG-0013808, N-[(4S,5S)-7-ethyl-4-(4-fluorophenyl)-3-methyl-6-oxo-1-phenyl-1H,4H,5H,6H,7H-pyrazolo[3,4-b]pyridin-5-yl]-3-(trifluoromethyl)benzene-1-sulfonamide]",> 36500
5,"CCN1C(=O)[C@@H](NC(=O)c2cccc(C(F)(F)F)c2)[C@@H](c2ccc(F)cc2)c2c(CN(C)C)nn(-c3ccccc3)c21 [RG-0014053, N-[(4S,5S)-3-[(dimethylamino)methyl]-7-ethyl-4-(4-fluorophenyl)-6-oxo-1-phenyl-1H,4H,5H,6H,7H-pyrazolo[3,4-b]pyridin-5-yl]-3-(trifluoromethyl)benzamide]",90.7 ± 4.38
6,"CCN1C(=O)[C@@H](NC(=O)c2cccc(C(F)(F)F)c2)[C@@H](c2ccc(F)cc2)c2c(CN3CCC(F)(F)CC3)nn(-c3ccccc3)c21 [RG-0014146, N-[(4S,5S)-3-[(4,4-difluoropiperidin-1-yl)methyl]-7-ethyl-4-(4-fluorophenyl)-6-oxo-1-phenyl-1H,4H,5H,6H,7H-pyrazolo[3,4-b]pyridin-5-yl]-3-(trifluoromethyl)benzamide]",321 ± 27.3
7,"CCN1C(=O)[C@@H](NC(=O)c2ccc(C)s2)[C@@H](c2ccc(F)cc2)c2c(C)nn(-c3ccccc3)c21 [RG-0014062, N-[(4S,5S)-7-ethyl-4-(4-fluorophenyl)-3-methyl-6-oxo-1-phenyl-1H,4H,5H,6H,7H-pyrazolo[3,4-b]pyridin-5-yl]-5-methylthiophene-2-carboxamide]",2340 ± 77.2
8,"CCN1C(=O)[C@@H](NC(=O)c2cccc(OC)c2)[C@@H](c2ccc(F)cc2)c2c(C)nn(-c3ccccc3)c21 [RG-0013979, N-[(4S,5S)-7-ethyl-4-(4-fluorophenyl)-3-methyl-6-oxo-1-phenyl-1H,4H,5H,6H,7H-pyrazolo[3,4-b]pyridin-5-yl]-3-methoxybenzamide]",629 ± 64.8
9,"CCN1C(=O)[C@@H](NC(=O)c2cccc(C(F)(F)F)c2)[C@@H](c2ccc(F)cc2)c2c(CNCC(F)(F)F)nn(-c3ccccc3)c21 [RG-0014145, N-[(4S,5S)-7-ethyl-4-(4-fluorophenyl)-6-oxo-1-phenyl-3-{[(2,2,2-trifluoroethyl)amino]methyl}-1H,4H,5H,6H,7H-pyrazolo[3,4-b]pyridin-5-yl]-3-(trifluoromethyl)benzamide]",161 ± 13.1
10,"CCN1C(=O)[C@@H](NC(=O)c2cccc(C)c2)[C@@H](c2ccc(F)cc2)c2c(C)nn(CC)c21 [RG-0008869, N-[(4S,5S)-1,7-diethyl-4-(4-fluorophenyl)-3-methyl-6-oxo-1H,4H,5H,6H,7H-pyrazolo[3,4-b]pyridin-5-yl]-3-methylbenzamide]",384 ± 30.6
11,"CCN1C(=O)[C@@H](NC(=O)c2ccc3ncsc3c2)[C@@H](c2ccc(F)cc2)c2c(C)nn(-c3ccccc3)c21 [RG-0014158, N-[(4S,5S)-7-ethyl-4-(4-fluorophenyl)-3-methyl-6-oxo-1-phenyl-1H,4H,5H,6H,7H-pyrazolo[3,4-b]pyridin-5-yl]-1,3-benzothiazole-6-carboxamide]",6310 ± 465
12,"CCN1C(=O)[C@@H](NC(=O)c2cccc(C(F)(F)F)c2)[C@@H](c2ccc(F)nc2)c2c(CN)nn(-c3ccccc3)c21 [RG-0014006, N-[(4S,5S)-3-(aminomethyl)-7-ethyl-4-(6-fluoropyridin-3-yl)-6-oxo-1-phenyl-1H,4H,5H,6H,7H-pyrazolo[3,4-b]pyridin-5-yl]-3-(trifluoromethyl)benzamide]",135 ± 7
13,"CC(=O)NCN1C(=O)[C@@H](NC(=O)c2cccc(C(F)(F)F)c2)[C@@H](c2ccc(F)cc2)c2c(C)nn(-c3ccccc3)c21 [RG-0013840, N-[(4S,5S)-7-(acetamidomethyl)-4-(4-fluorophenyl)-3-methyl-6-oxo-1-phenyl-1H,4H,5H,6H,7H-pyrazolo[3,4-b]pyridin-5-yl]-3-(trifluoromethyl)benzamide]",> 36500
14,"C=CC(=O)NCc1nn(-c2ccccc2)c2c1[C@H](c1ccc(F)cc1)[C@H](NC(=O)c1cccc(C(F)(F)F)c1)C(=O)N2CC [RG-0014047, N-[(4S,5S)-7-ethyl-4-(4-fluorophenyl)-6-oxo-1-phenyl-3-[(prop-2-enamido)methyl]-1H,4H,5H,6H,7H-pyrazolo[3,4-b]pyridin-5-yl]-3-(trifluoromethyl)benzamide]",95.3 ± 4.67
15,"CCN1C(=O)[C@@H](NC(=O)c2cccc(C(F)(F)F)c2)[C@@H](c2ccc(F)nc2)c2c(CO)nn(-c3ccccc3)c21 [RG-0013992, N-[(4S,5S)-7-ethyl-4-(6-fluoropyridin-3-yl)-3-(hydroxymethyl)-6-oxo-1-phenyl-1H,4H,5H,6H,7H-pyrazolo[3,4-b]pyridin-5-yl]-3-(trifluoromethyl)benzamide]",157 ± 19.2
16,"CCN1C(=O)[C@@H](NC(=O)c2cccc(C(F)(F)F)c2)[C@@H](c2ccc(F)cc2)c2c(CN3CCNCC3)nn(-c3ccccc3)c21 [RG-0014141, N-[(4S,5S)-7-ethyl-4-(4-fluorophenyl)-6-oxo-1-phenyl-3-[(piperazin-1-yl)methyl]-1H,4H,5H,6H,7H-pyrazolo[3,4-b]pyridin-5-yl]-3-(trifluoromethyl)benzamide]",141 ± 7.56
17,"Cc1nn(-c2ccccc2)c2c1[C@H](c1ccc(F)cc1)[C@H](NC(=O)c1cccc(C(F)(F)F)c1)C(=O)N2CCNC(=O)OC(C)(C)C [RG-0014162, tert-butyl N-{2-[(4S,5S)-4-(4-fluorophenyl)-3-methyl-6-oxo-1-phenyl-5-[3-(trifluoromethyl)benzamido]-1H,4H,5H,6H,7H-pyrazolo[3,4-b]pyridin-7-yl]ethyl}carbamate]",> 13600
18,"CCN1C(=O)[C@@H](NC(=O)c2cccc(C(F)(F)F)c2)[C@@H](c2ccc(F)cc2)c2c(CNC(=O)CC(C)C)nn(-c3ccccc3)c21 [RG-0014052, N-[(4S,5S)-7-ethyl-4-(4-fluorophenyl)-3-[(3-methylbutanamido)methyl]-6-oxo-1-phenyl-1H,4H,5H,6H,7H-pyrazolo[3,4-b]pyridin-5-yl]-3-(trifluoromethyl)benzamide]",114 ± 8.67
19,"CCCN1C(=O)[C@@H](NC(=O)c2cccc(C)c2)[C@@H](c2ccc(F)cc2)c2c(C)nn(-c3ccccc3)c21 [RG-0007415, N-[(4S,5S)-4-(4-fluorophenyl)-3-methyl-6-oxo-1-phenyl-7-propyl-1H,4H,5H,6H,7H-pyrazolo[3,4-b]pyridin-5-yl]-3-methylbenzamide]",1040 ± 204
20,"CCN1C(=O)[C@@H](NC(=O)c2cccc(C(F)(F)F)c2)[C@@H](c2cc(C)cs2)c2c(C)nn(-c3ccccc3)c21 [RG-0013987, N-[(4S,5S)-7-ethyl-3-methyl-4-(4-methylthiophen-2-yl)-6-oxo-1-phenyl-1H,4H,5H,6H,7H-pyrazolo[3,4-b]pyridin-5-yl]-3-(trifluoromethyl)benzamide]",3100 ± 559
21,"CCN1C(=O)[C@@H](NC(=O)c2cccc(C(F)(F)F)n2)[C@@H](c2ccc(F)cc2)c2c(C)nn(-c3ccccc3)c21 [RG-0014061, N-[(4S,5S)-7-ethyl-4-(4-fluorophenyl)-3-methyl-6-oxo-1-phenyl-1H,4H,5H,6H,7H-pyrazolo[3,4-b]pyridin-5-yl]-6-(trifluoromethyl)pyridine-2-carboxamide]",1110 ± 130
22,"CCCN1C(=O)[C@@H](N(CCC)C(=O)c2cccc(C(F)(F)F)c2)[C@@H](c2ccc(F)cc2)c2c(C)nn(-c3ccccc3)c21 [RG-0009516, N-[(4S,5S)-4-(4-fluorophenyl)-3-methyl-6-oxo-1-phenyl-7-propyl-1H,4H,5H,6H,7H-pyrazolo[3,4-b]pyridin-5-yl]-N-propyl-3-(trifluoromethyl)benzamide]",> 36500
23,"CCN1C(=O)[C@@H](NC(=O)c2cccc(C(F)(F)F)c2)[C@@H](c2ccc(F)cc2)c2c(CNCCNC(=O)OC(C)(C)C)nn(-c3ccccc3)c21 [RG-0014142, tert-butyl N-[2-({[(4S,5S)-7-ethyl-4-(4-fluorophenyl)-6-oxo-1-phenyl-5-[3-(trifluoromethyl)benzamido]-1H,4H,5H,6H,7H-pyrazolo[3,4-b]pyridin-3-yl]methyl}amino)ethyl]carbamate]",116 ± 17.5
24,"CCN1C(=O)[C@@H](NC(=O)c2cccc(Oc3ccccc3)c2)[C@@H](c2ccc(F)cc2)c2c(C)nn(-c3ccccc3)c21 [RG-0013976, N-[(4S,5S)-7-ethyl-4-(4-fluorophenyl)-3-methyl-6-oxo-1-phenyl-1H,4H,5H,6H,7H-pyrazolo[3,4-b]pyridin-5-yl]-3-phenoxybenzamide]",5930 ± 606
25,"Cc1cccc(C(=O)N[C@@H]2C(=O)N(CC(F)(F)F)c3c(c(C)nn3-c3ccccc3)[C@@H]2c2ccc(F)cc2)c1 [RG-0009509, N-[(4S,5S)-4-(4-fluorophenyl)-3-methyl-6-oxo-1-phenyl-7-(2,2,2-trifluoroethyl)-1H,4H,5H,6H,7H-pyrazolo[3,4-b]pyridin-5-yl]-3-methylbenzamide]",7000 ± 1710
